In PubChem BioAssay (NCI):
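Dose response: 5 concentrations. Exposure: 48 h. Format: 96-well plates. Endpoint: linear interpolation; highest concentration if not reached. The concentration for 50% growth inhibition is given as GI50. The concentration for full growth arrest is given as TGI.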

Experiments:
Assay in all cases: inhibition of tumour cell growth, NCI panel, 48 h
[1] = system: HOP-62 NSCLC
[2] = system: IGROV1 ovarian
[3] = system: ACHN renal
[4] = system: LOX IMVI melanoma
[5] = system: HCT-116 colon
[6] = system: U251 CNS
[7] = system: 786-0 renal
[8] = system: SF-295 CNS
[9] = system: HT29 colon
[10] = system: HL-60(TB) leukemia
[11] = system: NCI-H522 lung
[12] = system: SF-539 CNS
[13] = system: SK-MEL-5 melanoma
[14] = system: T-47D breast
[15] = system: DU-145 prostate
[16] = system: NCI/ADR-RES ovarian
[17] = system: MDA-N
[18] = system: MALME-3M melanoma
[19] = system: SK-OV-3 ovarian
[20] = system: UACC-62 melanoma
[21] = system: SN12C renal
[22] = system: PC-3 prostate
[23] = system: NCI-H23 lung
[24] = system: SW-620 colon
[25] = system: SK-MEL-28 melanoma
[26] = system: UACC-257 melanoma
[27] = system: SF-268 CNS
[28] = system: OVCAR-4 ovarian
[29] = system: COLO 205 colon
[30] = system: HOP-92 NSCLC
[31] = system: A498 renal
[32] = system: RPMI-8226 leukemia
[33] = system: OVCAR-5 ovarian
[34] = system: RXF 393 renal
[35] = system: OVCAR-3 ovarian
[36] = system: SNB-19 CNS
[37] = system: EKVX NSCLC
[38] = system: CAKI-1 renal
[39] = system: KM12 colon
[40] = system: CCRF-CEM leukemia
[41] = system: NCI-H460 lung
[42] = system: HCT-15 colon
[43] = system: TK-10 renal
[44] = system: M14 melanoma
[45] = system: MDA-MB-435
[46] = system: A549 NSCLC
[47] = system: OVCAR-8 ovarian
[48] = system: K-562 leukemia
[49] = system: HS 578T breast
[50] = system: MCF7 breast
[51] = system: SR leukemia
[52] = system: NCI-H226 lung
[53] = system: HCC-2998 colon
[54] = system: MDA-MB-231 breast
[55] = system: SNB-75 CNS
[56] = system: MOLT-4 leukemia
[57] = system: SK-MEL-2 melanoma
[58] = system: UO-31 renal
[59] = system: BT-549 breast

CC1(C)N=C(C(N)=O)c2ncn(CCO)c2N1
TGI [1]: > 100 µM | TGI [2]: > 100 µM | TGI [3]: > 100 µM | TGI [4]: > 100 µM | TGI [5]: > 100 µM | TGI [6]: > 100 µM | TGI [7]: > 100 µM | TGI [8]: > 100 µM | TGI [9]: > 100 µM | TGI [10]: > 100 µM | TGI [11]: > 100 µM | TGI [12]: > 100 µM | TGI [13]: > 100 µM | TGI [14]: > 100 µM | TGI [15]: > 100 µM | TGI [16]: > 100 µM | TGI [17]: > 100 µM | TGI [18]: > 100 µM | TGI [19]: > 100 µM | TGI [20]: > 100 µM | TGI [21]: > 100 µM | TGI [22]: > 100 µM | TGI [23]: > 100 µM | TGI [24]: > 100 µM | TGI [25]: > 100 µM | TGI [26]: > 100 µM | TGI [27]: > 100 µM | TGI [28]: > 100 µM | TGI [29]: > 100 µM | TGI [30]: > 100 µM | TGI [31]: > 100 µM | TGI [32]: > 100 µM | TGI [33]: > 100 µM | TGI [34]: > 100 µM | TGI [35]: > 100 µM | TGI [36]: > 100 µM | TGI [37]: > 100 µM | TGI [38]: > 100 µM | TGI [39]: > 100 µM | TGI [40]: > 100 µM | TGI [41]: > 100 µM | TGI [42]: > 100 µM | TGI [43]: > 100 µM | TGI [44]: > 100 µM | TGI [45]: > 100 µM | TGI [46]: > 100 µM | TGI [47]: > 100 µM | TGI [48]: > 100 µM | TGI [49]: > 100 µM | TGI [50]: > 100 µM | TGI [51]: > 100 µM | TGI [52]: > 100 µM | TGI [53]: > 100 µM | TGI [54]: > 100 µM

COC(=O)/C=C(\C)C(=O)N(C)c1ccccc1I
TGI [1]: > 100 µM | TGI [3]: > 100 µM | TGI [4]: > 100 µM | TGI [5]: > 100 µM | TGI [55]: > 100 µM | TGI [56]: > 100 µM | TGI [6]: > 100 µM | TGI [7]: > 100 µM | TGI [8]: > 100 µM | TGI [57]: > 100 µM | TGI [13]: > 100 µM | TGI [14]: > 100 µM | TGI [15]: > 100 µM | TGI [58]: > 100 µM | TGI [16]: > 100 µM | TGI [17]: > 100 µM | TGI [18]: > 100 µM | TGI [19]: > 100 µM | TGI [20]: > 100 µM | TGI [21]: > 100 µM | TGI [22]: > 100 µM | TGI [23]: > 100 µM | TGI [24]: > 100 µM | TGI [25]: > 100 µM | TGI [26]: > 100 µM | TGI [27]: > 100 µM | TGI [28]: > 100 µM | TGI [29]: > 100 µM | TGI [30]: > 100 µM | TGI [31]: > 100 µM | TGI [32]: > 100 µM | TGI [33]: > 100 µM | TGI [34]: > 100 µM | TGI [35]: > 100 µM | TGI [36]: > 100 µM | TGI [37]: > 100 µM | TGI [38]: > 100 µM | TGI [39]: > 100 µM | TGI [40]: > 100 µM | TGI [41]: > 100 µM | TGI [42]: > 100 µM | TGI [44]: > 100 µM | TGI [45]: > 100 µM | TGI [46]: > 100 µM | TGI [47]: > 100 µM | TGI [48]: > 100 µM | TGI [50]: > 100 µM | TGI [51]: > 100 µM | TGI [52]: > 100 µM | TGI [53]: > 100 µM | TGI [54]: > 100 µM

O=C(c1ccc2ncc(-c3nc(NC4CC4)ncc3F)n2c1)N1CCOCC1
GI50 [1]: 2.95 µM | TGI [1]: 8.28 µM | GI50 [2]: 2.42 µM | TGI [2]: 12.2 µM | GI50 [3]: 1.56 µM | TGI [3]: 12.4 µM | GI50 [4]: 1.11 µM | TGI [4]: 41.4 µM | GI50 [5]: 1.23 µM | TGI [5]: 10.4 µM | GI50 [55]: 1.47 µM | TGI [55]: 3.58 µM | GI50 [56]: 2.48 µM | TGI [56]: 7.1 µM | GI50 [6]: 2.46 µM | TGI [6]: > 100 µM | GI50 [7]: 3.06 µM | TGI [7]: 27.5 µM | GI50 [8]: 2.64 µM | TGI [8]: > 100 µM | GI50 [9]: 2.22 µM | TGI [9]: 13.1 µM | GI50 [10]: 1.97 µM | TGI [10]: 5.15 µM | GI50 [57]: 1.66 µM | TGI [57]: 3.81 µM | GI50 [11]: 1.99 µM | TGI [11]: 7.41 µM | GI50 [12]: 1.8 µM | TGI [12]: 4.79 µM | GI50 [13]: 2.6 µM | TGI [13]: 8.53 µM | GI50 [14]: 2 µM | TGI [14]: 7.49 µM | GI50 [15]: 2.68 µM | TGI [15]: > 100 µM | GI50 [58]: 2.66 µM | TGI [58]: 13.6 µM | GI50 [16]: 2.92 µM | TGI [16]: 19.2 µM | GI50 [18]: 3.33 µM | TGI [18]: 8.35 µM | GI50 [20]: 1.54 µM | TGI [20]: 3.6 µM | GI50 [21]: 2.52 µM | TGI [21]: 11.8 µM | GI50 [22]: 2.14 µM | TGI [22]: 8.86 µM | GI50 [23]: 2.58 µM | TGI [23]: 9.68 µM | GI50 [24]: 2.91 µM | TGI [24]: > 100 µM | GI50 [25]: 2.47 µM | TGI [25]: 7.6 µM | GI50 [26]: 2.71 µM | TGI [26]: 8.43 µM | GI50 [27]: 2.53 µM | TGI [27]: 7.12 µM | GI50 [28]: 2.8 µM | TGI [28]: 10.9 µM | GI50 [30]: 1.93 µM | TGI [30]: 6.86 µM | GI50 [31]: 1.63 µM | TGI [31]: 3.82 µM | GI50 [32]: 1.98 µM | TGI [32]: 5.32 µM | GI50 [33]: 2.16 µM | TGI [33]: 8.97 µM | GI50 [34]: 1.07 µM | TGI [34]: 3.02 µM | GI50 [35]: 2.21 µM | TGI [35]: 7.22 µM | GI50 [37]: 2.85 µM | TGI [37]: 71.7 µM | GI50 [38]: 1.33 µM | TGI [38]: 62.8 µM | GI50 [39]: 2.28 µM | TGI [39]: 11.8 µM | GI50 [40]: 1.72 µM | TGI [40]: 4.74 µM | GI50 [41]: 2.91 µM | TGI [41]: > 100 µM | GI50 [42]: 2.51 µM | TGI [42]: > 100 µM | GI50 [44]: 1.9 µM | TGI [44]: 4.07 µM | GI50 [45]: 3.11 µM | TGI [45]: 14.4 µM | GI50 [59]: 1.58 µM | TGI [59]: 5.29 µM | GI50 [46]: 2.48 µM | TGI [46]: > 100 µM | GI50 [47]: 2.44 µM | TGI [47]: > 100 µM | GI50 [48]: 3.21 µM | TGI [48]: 29 µM | GI50 [49]: 2.21 µM | TGI [49]: 8.04 µM | GI50 [50]: 2.71 µM | TGI [50]: 11 µM | GI50 [51]: 0.513 µM | TGI [51]: 4.15 µM | GI50 [52]: 2.05 µM | TGI [52]: 6.39 µM | GI50 [53]: 3.01 µM | TGI [53]: 8.99 µM | GI50 [54]: 2.4 µM | TGI [54]: 8.98 µM
